Measured values published in the supplement of paper PMC10307832.

These cell lines were tested with CN(C)C(=N)NC(=N)N [Metformin] + Cc1nc(Nc2ncc(C(=O)Nc3c(C)cccc3Cl)s2)cc(N2CCN(CCO)CC2)n1 [Dasatinib] (partner 0.075 µM) (assay: relative viability (nuclei count vs DMSO), 5 days (fraction); higher = more cells survive). Conditions: first compound 10 µM.
Summary of the method: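 Lung cancer cell lines were seeded in 1536-well plates and dosed by pin tool the next day, with either a single drug or a fixed anchor-drug dose combined with five library-drug doses (not always all listed) spaced in √10 steps. Five days later, one step fixed the cells and stained their nuclei (final 0.05% Triton X-100, 1% formaldehyde, 1 ug/ml Hoechst), and nuclei were counted on 4× images. Relative viability is the nuclei count in treated wells divided by the count in vehicle wells, and each value is the median of duplicate plates.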

Row | Cell Line | relative viability
1 | A-427 | 0.53
2 | ABC-1 | 0.414
3 | BEN | 0.421
4 | CAL-12T | 0.471
5 | COR-L23 | 0.496
6 | COR-L 105 | 0.452
7 | ChaGo-K-1 | 0.742
8 | EMC-BAC-2 | 0.37
9 | EPLC-272H | 0.358
10 | H3255 | 0.391
11 | HCC-78 | 0.405
12 | HCC-366 | 0.565
13 | HOP-62 | 0.748
14 | LCLC-97TM1 | 0.739
15 | LCLC-103H | 0.598
16 | LK-2 | 0.447
17 | LOU-NH91 | 0.576
18 | LU99A | 0.415
19 | LXF-289 | 0.186
20 | NCI-H23 | 0.759
21 | NCI-H322M | 0.326
22 | NCI-H358 | 0.143
23 | NCI-H520 | 0.24
24 | NCI-H522 | 1.07
25 | NCI-H1563 | 0.535
26 | NCI-H1623 | 0.376

Same assay, conditions: first compound 31.62 µM

Row | Cell Line | relative viability
27 | 201T | 0.579
28 | A-427 | 0.722
29 | ABC-1 | 0.73
30 | BEN | 0.409
31 | CAL-12T | 0.58
32 | COR-L23 | 0.436
33 | COR-L 105 | 0.542
34 | ChaGo-K-1 | 0.712
35 | EKVX | 0.856
36 | EMC-BAC-2 | 0.312
37 | EPLC-272H | 0.445
38 | H3255 | 0.344
39 | HARA | 0.311
40 | HCC-15 | 0.625
41 | HCC-78 | 0.469
42 | HCC-366 | 0.566
43 | HCC-827 | 0.317

Row | Cell Line | relative viability
44 | HOP-62 | 0.664
45 | LC-2-ad | 0.598
46 | LCLC-97TM1 | 0.734
47 | LCLC-103H | 0.579
48 | LK-2 | 0.424
49 | LOU-NH91 | 0.491
50 | LU99A | 0.459
51 | LXF-289 | 0.188
52 | NCI-H23 | 0.876
53 | NCI-H322M | 0.318
54 | NCI-H358 | 0.127
55 | NCI-H441 | 0.577
56 | NCI-H520 | 0.195
57 | NCI-H522 | 1.15
58 | NCI-H1563 | 0.573
59 | NCI-H1623 | 0.518
60 | NCI-H1792 | 1.05

Same assay, conditions: first compound 100 µM

Row | Cell Line | relative viability
61 | 201T | 0.63
62 | A-427 | 0.676
63 | ABC-1 | 0.659
64 | BEN | 0.34
65 | CAL-12T | 0.479
66 | COR-L23 | 0.413
67 | COR-L 105 | 0.44
68 | ChaGo-K-1 | 0.637
69 | EKVX | 0.598
70 | EMC-BAC-2 | 0.323
71 | EPLC-272H | 0.462
72 | H3255 | 0.232
73 | HARA | 0.389
74 | HCC-15 | 0.581
75 | HCC-78 | 0.459
76 | HCC-366 | 0.632
77 | HCC-827 | 0.356

Row | Cell Line | relative viability
78 | HOP-62 | 0.687
79 | LC-2-ad | 0.606
80 | LCLC-97TM1 | 0.591
81 | LCLC-103H | 0.579
82 | LK-2 | 0.381
83 | LOU-NH91 | 0.498
84 | LU99A | 0.511
85 | LXF-289 | 0.188
86 | NCI-H23 | 0.833
87 | NCI-H322M | 0.31
88 | NCI-H358 | 0.118
89 | NCI-H441 | 0.609
90 | NCI-H520 | 0.265
91 | NCI-H522 | 1.18
92 | NCI-H1563 | 0.574
93 | NCI-H1623 | 0.511
94 | NCI-H1792 | 0.982

Same assay, conditions: first compound 316.23 µM

Row | Cell Line | relative viability
95 | 201T | 0.53
96 | A-427 | 0.74
97 | ABC-1 | 0.316
98 | BEN | 0.281
99 | CAL-12T | 0.357
100 | COR-L23 | 0.393
101 | COR-L 105 | 0.33
102 | ChaGo-K-1 | 0.501
103 | EKVX | 0.671
104 | EMC-BAC-2 | 0.334
105 | EPLC-272H | 0.426
106 | H3255 | 0.402
107 | HARA | 0.319
108 | HCC-15 | 0.556
109 | HCC-78 | 0.549
110 | HCC-366 | 0.568
111 | HCC-827 | 0.317

Row | Cell Line | relative viability
112 | HOP-62 | 0.713
113 | LC-2-ad | 0.372
114 | LCLC-97TM1 | 0.529
115 | LCLC-103H | 0.514
116 | LK-2 | 0.383
117 | LOU-NH91 | 0.538
118 | LU99A | 0.516
119 | LXF-289 | 0.137
120 | NCI-H23 | 0.499
121 | NCI-H322M | 0.305
122 | NCI-H358 | 0.212
123 | NCI-H441 | 0.385
124 | NCI-H520 | 0.195
125 | NCI-H522 | 1.02
126 | NCI-H1563 | 0.545
127 | NCI-H1623 | 0.627
128 | NCI-H1792 | 0.754

Same assay, conditions: first compound 1000 µM

Row | Cell Line | relative viability
129 | 201T | 0.559
130 | A-427 | 0.695
131 | ABC-1 | 0.31
132 | BEN | 0.414
133 | CAL-12T | 0.515
134 | COR-L23 | 0.121
135 | COR-L 105 | 0.348
136 | ChaGo-K-1 | 0.722
137 | EKVX | 0.779
138 | EMC-BAC-2 | 0.395
139 | EPLC-272H | 0.394
140 | H3255 | 0.315
141 | HARA | 0.423
142 | HCC-15 | 0.584
143 | HCC-78 | 0.327
144 | HCC-366 | 0.81
145 | HCC-827 | 0.316

Row | Cell Line | relative viability
146 | HOP-62 | 0.655
147 | LC-2-ad | 0.44
148 | LCLC-97TM1 | 0.725
149 | LCLC-103H | 0.588
150 | LK-2 | 0.558
151 | LOU-NH91 | 0.499
152 | LU99A | 0.538
153 | LXF-289 | 0.236
154 | NCI-H23 | 0.802
155 | NCI-H322M | 0.245
156 | NCI-H358 | 0.14
157 | NCI-H441 | 0.544
158 | NCI-H520 | 0.217
159 | NCI-H522 | 1.07
160 | NCI-H1563 | 0.489
161 | NCI-H1623 | 0.478
162 | NCI-H1792 | 0.756
